Values quoted from earlier work as cited in patent US7300923B2, “Partial and full agonists of A1 adenosine receptors” (CV Therapeutics, Inc., priority 2004, dated 2007).

Key:
[1] = biological target: T1, A1-adenosine receptor (Homo sapiens, UniProt P30542)
T1 sequence (P30542 1-326): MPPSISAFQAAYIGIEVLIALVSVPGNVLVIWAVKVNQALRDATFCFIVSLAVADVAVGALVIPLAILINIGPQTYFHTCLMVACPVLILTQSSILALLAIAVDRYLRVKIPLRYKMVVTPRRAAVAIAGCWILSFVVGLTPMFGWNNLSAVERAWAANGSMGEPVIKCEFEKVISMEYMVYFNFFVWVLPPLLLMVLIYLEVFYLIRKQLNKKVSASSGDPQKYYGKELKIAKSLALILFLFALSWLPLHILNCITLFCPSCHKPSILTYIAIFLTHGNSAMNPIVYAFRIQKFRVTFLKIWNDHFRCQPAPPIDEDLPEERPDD

[2] = system: seizures induced by DMCM; conditions: seizures induced by the inverse benzodiazepine agonist DMCM

Structure (SMILES): OC1CCCC1Nc1ncnc2c1ncn2[C@@H]1O[C@H](CSc2ccccc2F)[C@@H](O)[C@H]1O (mixture of isomers) [(4S,5S,2R,3R)-5-[(2-fluorophenylthio)methyl]-2-{6-[(2-hydroxy-cyclopentyl)amino]-purin-9-yl}oxolane-3,4-diol]
- A1-adenosine receptor agonist profile [1]: highly selective partial A1-adenosine receptor agonist

Structure (SMILES): Nc1ncnc2c1ncn2[C@@H]1O[C@H](CO)[C@@H](O)[C@H]1O [adenosine, Adenosine]
- half-life: less than 10 sec

Structure (SMILES): Cc1ccccc1CNc1ncnc2c1ncn2[C@@H]1O[C@H](CO)[C@@H](O)[C@H]1O [metrifudil]
- anticonvulsant activity [2]: potent anticonvulsant
